Source: ChEMBL document CHEMBL1914343, “Recent progress in synthesis and bioactivity studies of indolizines” (Eur J Med Chem, 2011)

Experiments:
[1] = Inhibition of soybean arachidonate 15-lipoxygenase; design: species or system Glycine max
[2] = system: Mycobacterium tuberculosis; assay: Antimycobacterial activity against Mycobacterium tuberculosis H37Rv ATCC 27294 at 6.25 ug/mL by microplate alamar blue assay; assay type: functional
[3] = system: Radical scavenging activity; assay: Antioxidant activity assessed as DPPH radical scavenging activity at 667 uM after 15 mins; assay type: functional
[4] = Antioxidant activity assessed as inhibition of lipid peroxidation after 30 mins; assay type: functional
[5] = target: T1, Polyunsaturated fatty acid lipoxygenase ALOX15 (Oryctolagus cuniculus, UniProt P12530); assay: Inhibition of rabbit reticulocytes arachidonate 15-lipoxygenase
T1 sequence (P12530 whole entry): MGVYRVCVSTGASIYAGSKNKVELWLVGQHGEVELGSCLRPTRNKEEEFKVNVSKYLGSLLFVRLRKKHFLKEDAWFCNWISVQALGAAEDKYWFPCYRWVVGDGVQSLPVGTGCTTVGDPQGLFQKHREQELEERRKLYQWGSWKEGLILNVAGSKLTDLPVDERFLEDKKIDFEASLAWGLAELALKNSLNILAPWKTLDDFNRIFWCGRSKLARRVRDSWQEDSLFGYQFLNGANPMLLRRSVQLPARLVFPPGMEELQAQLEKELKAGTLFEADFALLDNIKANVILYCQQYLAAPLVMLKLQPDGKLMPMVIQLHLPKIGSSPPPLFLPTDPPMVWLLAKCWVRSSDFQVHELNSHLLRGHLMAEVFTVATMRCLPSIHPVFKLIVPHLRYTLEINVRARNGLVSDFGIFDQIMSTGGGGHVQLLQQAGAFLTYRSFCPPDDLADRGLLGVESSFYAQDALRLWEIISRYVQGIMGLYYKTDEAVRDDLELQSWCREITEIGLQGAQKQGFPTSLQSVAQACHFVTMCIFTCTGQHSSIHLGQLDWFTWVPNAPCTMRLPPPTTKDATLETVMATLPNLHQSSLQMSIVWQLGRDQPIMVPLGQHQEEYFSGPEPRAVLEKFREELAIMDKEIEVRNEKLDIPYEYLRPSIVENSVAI

Row | SMILES | IC50 [1] [µM] | inhibition at 6.25 µg/mL [2] [%] | Activity [3] [%] | IC50 [4] [µM] | IC50 [5] [µM]
1 | CN(C)S(=O)(=O)Oc1c(-c2ccccc2)c(-c2ccccc2)n2ccc(C#N)cc12 | 25 | – | – | – | –
2 | COC(c1ccccc1)c1c(-c2ccccc2)c(-c2ccccc2)n2ccc(C#N)cc12 (stereo not given) | 21 | 74 | – | – | –
3 | Cc1ccc(S(=O)(=O)Oc2c(-c3ccc(Cl)cc3)c(-c3ccc(Cl)cc3)n3ccc(C#N)cc23)cc1 | 20 | – | – | – | –
4 | COc1ccc(COc2c(-c3ccccc3)c(-c3ccccc3)n3ccc(C#N)cc23)cc1 | 32 | – | 33.3 | – | –
5 | C=Cc1c(-c2ccccc2)c(-c2ccccc2)n2ccc(C#N)cc12 | – | – | – | > 100 | –
6 | N#Cc1ccn2c(-c3ccccc3)c(-c3ccccc3)c(Br)c2c1 | – | 69 | – | > 100 | –
7 | Cc1ccc(-c2c(OS(=O)(=O)c3ccc(C)cc3)c3cc(C#N)ccn3c2-c2ccc(C)cc2)cc1 | 20 | – | – | – | –
8 | CC(O)c1c(-c2ccccc2)c(-c2ccccc2)n2ccc(C#N)cc12 (stereo not given) | 26 | 78 | – | – | –
9 | COc1ccccc1-c1c(-c2ccccc2)c(-c2ccccc2)n2ccc(C#N)cc12 | 20 | – | -0.2 | > 100 | –
10 | N#Cc1ccn2c(-c3ccccc3)c(-c3ccccc3)c(OS(=O)(=O)C(F)(F)F)c2c1 | 46 | – | 79.5 | 0.6 | 59
11 | COc1ccc(S(=O)(=O)Oc2c(-c3ccccc3)c(-c3ccccc3)n3ccc(C#N)cc23)c(OC)c1 | 27 | – | – | – | –
12 | N#Cc1ccn2c(-c3ccccc3)c(-c3ccccc3)c(OS(=O)(=O)c3ccc(C(F)(F)F)cc3)c2c1 | 23 | – | – | – | –
13 | Cc1c(-c2ccccc2)c(-c2ccccc2)n2ccc(C#N)cc12 | 27 | 41 | -0.9 | – | –
14 | CC(=O)Oc1c(-c2ccccc2)c(-c2ccccc2)n2ccc(C#N)cc12 | 31 | – | -0.5 | 0.15 | 75
15 | Cc1ccc(-c2cc3cc(C#N)ccn3c2-c2ccc(C)cc2)cc1 | 27 | – | – | – | –
16 | N#Cc1ccn2c(-c3ccccc3)c(-c3ccccc3)c(CO)c2c1 | 26 | 67 | – | – | 34
17 | N#Cc1ccn2c(-c3ccccc3)c(-c3ccccc3)c(Cc3ccccc3)c2c1 | 27 | 43 | – | – | 46
18 | COc1ccc(S(=O)(=O)Oc2c(-c3ccc(C)cc3)c(-c3ccc(C)cc3)n3ccc(C#N)cc23)cc1 | 25 | – | – | – | –
19 | COc1cccc(-c2c(-c3ccccc3)c(-c3ccccc3)n3ccc(C#N)cc23)c1 | 20 | – | -0.3 | > 100 | –
20 | Cc1ccc(S(=O)(=O)Oc2c(-c3ccccc3)c(-c3ccccc3)n3ccc(C=O)cc23)cc1 | 20 | – | – | – | –
21 | COc1ccccc1C(=O)Oc1c(-c2ccccc2)c(-c2ccccc2)n2ccc(C#N)cc12 | 30 | – | 4.7 | – | –
22 | N#Cc1ccn2c(-c3ccccc3)c(-c3ccccc3)c(OS(=O)(=O)c3ccc(Cl)cc3)c2c1 | 22 | – | – | – | –
23 | COc1c(-c2ccccc2)c(-c2ccccc2)n2ccc(C#N)cc12 | 33 | – | -0.6 | 22 | 77

Row | SMILES | IC50 [1] [µM] | inhibition at 6.25 µg/mL [2] [%] | Activity [3] [%] | IC50 [4] [µM] | IC50 [5] [µM]
24 | N#Cc1ccn2c(-c3ccccc3)c(-c3ccccc3)c(-c3ccco3)c2c1 | 24 | – | -0.6 | > 100 | –
25 | Cc1ccc(S(=O)(=O)Oc2c(-c3ccccc3)c(-c3ccccc3)n3ccccc23)cc1 | 25 | – | – | – | –
26 | Cc1cc(C)c(S(=O)(=O)Oc2c(-c3ccccc3)c(-c3ccccc3)n3ccc(C#N)cc23)c(C)c1 | 17 | – | – | – | –
27 | Cc1ccc(S(=O)(=O)Oc2c(-c3ccccc3)c(-c3ccccc3)n3ccc(C#N)cc23)cc1C | 19 | – | – | – | –
28 | CC(=O)c1ccn2c(-c3ccccc3)c(-c3ccccc3)c(OS(=O)(=O)c3ccc(C)cc3)c2c1 | 23 | – | – | – | –
29 | Cc1ccc(COc2c(-c3ccccc3)c(-c3ccccc3)n3ccc(C#N)cc23)cc1 | 37 | – | -0.8 | – | –
30 | N#Cc1ccn2c(-c3ccccc3)c(-c3ccccc3)c(OCc3ccc(F)cc3)c2c1 | 35 | – | 1.8 | – | –
31 | COc1cccc(C(=O)Oc2c(-c3ccccc3)c(-c3ccccc3)n3ccc(C#N)cc23)c1 | 28 | – | 1.2 | – | –
32 | COc1ccccc1COc1c(-c2ccccc2)c(-c2ccccc2)n2ccc(C#N)cc12 | 29 | – | 1.6 | – | –
33 | N#Cc1ccn2c(-c3ccccc3)c(-c3ccccc3)c(OS(=O)(=O)c3ccccc3)c2c1 | 24 | – | – | – | –
34 | CCc1c(OS(=O)(=O)c2ccc(C)cc2)c2cc(C#N)ccn2c1CC | 29 | – | – | – | –
35 | CC(O)(c1ccccc1)c1c(-c2ccccc2)c(-c2ccccc2)n2ccc(C#N)cc12 (stereo not given) | 17 | 71 | – | – | –
36 | N#Cc1ccn2c(-c3ccc(F)cc3)c(-c3ccc(F)cc3)cc2c1 | 30 | – | – | – | –
37 | CCCCc1c(OS(=O)(=O)c2ccc(C)cc2)c2cc(C#N)ccn2c1CCCC | 30 | – | – | – | –
38 | CC(=O)c1c(-c2ccccc2)c(-c2ccccc2)n2ccc(C#N)cc12 | 23 | 21 | – | > 100 | 44
39 | N#Cc1ccn2c(-c3ccccc3)c(-c3ccccc3)c(-c3cccs3)c2c1 | 20 | – | -1.8 | > 100 | –
40 | N#Cc1ccn2c(-c3ccccc3)c(-c3ccccc3)c(C=O)c2c1 | 29 | 35 | – | – | 61
41 | N#Cc1ccn2c(-c3ccccc3)c(-c3ccccc3)c(OCOCc3ccccc3)c2c1 | 27 | – | 0.1 | – | 39
42 | CS(=O)(=O)c1ccc(S(=O)(=O)Oc2c(-c3ccccc3)c(-c3ccccc3)n3ccc(C#N)cc23)cc1 | 24 | – | – | – | –
43 | N#Cc1ccn2c(-c3ccccc3)c(-c3ccccc3)c(OCOC(COCc3ccccc3)COCc3ccccc3)c2c1 | 31 | – | 4.2 | – | –
44 | N#Cc1ccn2c(-c3ccccc3)c(-c3ccccc3)c(OCc3ccc(Cl)cc3)c2c1 | 31 | – | 1.3 | – | –
45 | N#Cc1ccn2c(-c3ccc(Cl)cc3)c(-c3ccc(Cl)cc3)cc2c1 | 33 | – | – | – | –
46 | N#Cc1ccn2c(-c3ccccc3)c(-c3ccccc3)c(OCc3cccc(Cl)c3)c2c1 | 31 | – | -0.1 | – | –

Row | SMILES | IC50 [1] [µM] | inhibition at 6.25 µg/mL [2] [%] | Activity [3] [%] | IC50 [4] [µM] | IC50 [5] [µM]
47 | O=c1c(O)c(-c2ccc(O)c(O)c2)oc2cc(O)cc(O)c12 [QUERCETIN] | 51 | – | – | – | 37
48 | Cc1ccc(S(=O)(=O)c2c(-c3ccccc3)c(-c3ccccc3)n3ccc(C#N)cc23)cc1 | 29 | – | – | – | –
49 | CC(C)c1ccc(S(=O)(=O)Oc2c(-c3ccccc3)c(-c3ccccc3)n3ccc(C#N)cc23)cc1 | 16 | – | – | – | –
50 | Cc1ccc(S(=O)(=O)Oc2c(-c3ccc(F)cc3)c(-c3ccc(F)cc3)n3ccc(C#N)cc23)cc1 | 22 | – | – | – | –
51 | CS(=O)(=O)Oc1c(-c2ccccc2)c(-c2ccccc2)n2ccc(C#N)cc12 | 22 | – | – | – | –
52 | N#Cc1ccn2c(-c3ccccc3)c(-c3ccccc3)c(OCc3ccccc3)c2c1 | 31 | – | 0.8 | – | –
53 | COc1ccc(S(=O)(=O)Oc2c(-c3ccccc3)c(-c3ccccc3)n3ccc(C#N)cc23)cc1 | 25 | – | – | – | –
54 | N#Cc1ccn2c(-c3ccccc3)c(-c3ccccc3)cc2c1 | 30 | 9 | -0.2 | > 100 | 51
55 | Cc1ccc(S(=O)(=O)Oc2c(-c3ccccc3)c(-c3ccccc3)n3ccc(C#N)cc23)cc1 | 17 | – | – | 3.64 | 25
56 | N#Cc1ccn2c(-c3ccccc3)c(-c3ccccc3)c(OS(=O)c3cccs3)c2c1 (stereo not given) | 21 | – | – | – | –
57 | COc1ccc(-c2c(-c3ccccc3)c(-c3ccccc3)n3ccc(C#N)cc23)cc1 | 20 | – | -0.9 | > 100 | 37
58 | COc1ccc(C(O)c2c(-c3ccccc3)c(-c3ccccc3)n3ccc(C#N)cc23)cc1 (stereo not given) | 17 | 87 | – | – | –
59 | CCS(=O)(=O)Oc1c(-c2ccccc2)c(-c2ccccc2)n2ccc(C#N)cc12 | 28 | – | – | – | –
60 | COc1ccc(OC)c(S(=O)(=O)Oc2c(-c3ccccc3)c(-c3ccccc3)n3ccc(C#N)cc23)c1 | 15 | – | – | – | –
61 | CC(C)S(=O)(=O)Oc1c(-c2ccccc2)c(-c2ccccc2)n2ccc(C#N)cc12 | 42 | – | – | – | –
62 | N#Cc1ccn2c(-c3ccccc3)c(-c3ccccc3)c(C(=O)c3ccccc3)c2c1 | 23 | 33 | – | – | 43
63 | Cc1ccccc1S(=O)(=O)Oc1c(-c2ccccc2)c(-c2ccccc2)n2ccc(C#N)cc12 | 22 | – | – | – | –
64 | COc1ccc(-c2c(OS(=O)(=O)c3ccc(C)cc3)c3cc(C#N)ccn3c2-c2ccc(OC)cc2)cc1 | 24 | – | – | – | –
65 | N#Cc1ccn2c(-c3ccccc3)c(-c3ccccc3)c(-c3ccsc3)c2c1 | 19 | – | 0 | > 100 | –
66 | N#Cc1ccn2c(-c3ccccc3)c(-c3ccccc3)c(-c3ccccc3)c2c1 | 28 | 8 | – | > 100 | –
67 | COc1ccc(C(=O)Oc2c(-c3ccccc3)c(-c3ccccc3)n3ccc(C#N)cc23)cc1 | 28 | – | 5.4 | – | –
68 | N#Cc1ccn2c(-c3ccccc3)c(-c3ccccc3)c(OS(=O)c3ccsc3)c2c1 (stereo not given) | 23 | – | – | – | –
